{"source": "ChEMBL document CHEMBL1201862", "about": "“PubChem BioAssay data set” (2004)", "key": {"[1]": {"target": "Serine/threonine-protein kinase PLK4 (Homo sapiens, UniProt O00444)", "sequence (O00444 whole entry)": "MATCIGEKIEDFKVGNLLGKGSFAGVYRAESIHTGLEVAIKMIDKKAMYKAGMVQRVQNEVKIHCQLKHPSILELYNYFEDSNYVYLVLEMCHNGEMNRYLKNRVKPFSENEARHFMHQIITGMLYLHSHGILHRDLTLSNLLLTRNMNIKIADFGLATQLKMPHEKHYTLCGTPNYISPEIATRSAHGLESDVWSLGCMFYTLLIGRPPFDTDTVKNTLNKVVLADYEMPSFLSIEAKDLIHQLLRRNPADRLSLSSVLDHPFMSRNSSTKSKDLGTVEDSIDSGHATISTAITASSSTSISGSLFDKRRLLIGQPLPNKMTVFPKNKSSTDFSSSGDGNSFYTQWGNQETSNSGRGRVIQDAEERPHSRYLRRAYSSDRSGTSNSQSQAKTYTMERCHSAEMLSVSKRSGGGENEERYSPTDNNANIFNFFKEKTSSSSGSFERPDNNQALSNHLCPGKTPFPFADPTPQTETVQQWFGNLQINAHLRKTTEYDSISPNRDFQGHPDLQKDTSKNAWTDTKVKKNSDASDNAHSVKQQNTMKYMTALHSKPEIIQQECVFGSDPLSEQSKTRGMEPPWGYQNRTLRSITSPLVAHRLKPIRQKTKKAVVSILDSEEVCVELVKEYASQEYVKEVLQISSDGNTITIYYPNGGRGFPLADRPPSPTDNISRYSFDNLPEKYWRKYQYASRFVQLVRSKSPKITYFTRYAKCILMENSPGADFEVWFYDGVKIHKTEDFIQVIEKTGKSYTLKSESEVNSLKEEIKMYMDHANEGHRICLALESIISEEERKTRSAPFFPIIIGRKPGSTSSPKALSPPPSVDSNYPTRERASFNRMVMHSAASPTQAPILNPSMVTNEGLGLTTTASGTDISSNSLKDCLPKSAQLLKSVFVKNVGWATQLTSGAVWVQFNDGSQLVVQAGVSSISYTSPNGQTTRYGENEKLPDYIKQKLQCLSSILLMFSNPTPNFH", "type": "functional"}, "[2]": {"target": "Serine/threonine-protein kinase Chk2 (Homo sapiens, UniProt O96017)", "type": "functional"}, "[3]": {"target": "MAP kinase-activated protein kinase 5 (Homo sapiens, UniProt Q8IW41)", "sequence (Q8IW41 whole entry)": "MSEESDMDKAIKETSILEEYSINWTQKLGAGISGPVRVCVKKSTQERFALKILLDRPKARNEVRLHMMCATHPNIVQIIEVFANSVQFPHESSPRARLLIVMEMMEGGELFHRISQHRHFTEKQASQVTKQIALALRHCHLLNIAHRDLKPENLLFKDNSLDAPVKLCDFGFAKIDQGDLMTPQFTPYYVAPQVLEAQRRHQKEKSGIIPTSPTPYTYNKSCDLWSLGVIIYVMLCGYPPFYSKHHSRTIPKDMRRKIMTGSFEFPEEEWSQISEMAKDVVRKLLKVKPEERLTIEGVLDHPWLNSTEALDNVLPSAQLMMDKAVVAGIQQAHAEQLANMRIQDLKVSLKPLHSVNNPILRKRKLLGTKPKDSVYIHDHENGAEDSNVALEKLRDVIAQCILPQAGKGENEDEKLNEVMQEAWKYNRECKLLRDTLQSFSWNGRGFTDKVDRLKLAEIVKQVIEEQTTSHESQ", "type": "functional"}, "[4]": {"target": "Cell division cycle 7-related protein kinase (Homo sapiens, UniProt O00311)", "sequence (O00311 whole entry)": "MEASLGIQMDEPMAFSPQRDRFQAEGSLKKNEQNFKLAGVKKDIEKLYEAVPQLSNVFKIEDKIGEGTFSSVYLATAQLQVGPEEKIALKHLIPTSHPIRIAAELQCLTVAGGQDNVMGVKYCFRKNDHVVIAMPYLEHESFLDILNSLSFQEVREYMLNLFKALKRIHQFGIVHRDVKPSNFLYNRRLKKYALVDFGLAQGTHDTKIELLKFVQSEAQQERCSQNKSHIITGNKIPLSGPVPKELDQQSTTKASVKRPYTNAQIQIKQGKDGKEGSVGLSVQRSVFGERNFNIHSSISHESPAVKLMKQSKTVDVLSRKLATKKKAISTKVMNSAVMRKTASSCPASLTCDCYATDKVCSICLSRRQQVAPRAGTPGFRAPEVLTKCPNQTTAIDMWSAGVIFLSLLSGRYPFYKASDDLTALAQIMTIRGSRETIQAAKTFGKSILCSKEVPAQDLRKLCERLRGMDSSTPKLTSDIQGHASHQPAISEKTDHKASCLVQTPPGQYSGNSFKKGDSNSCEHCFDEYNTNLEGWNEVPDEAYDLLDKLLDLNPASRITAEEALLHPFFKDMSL", "type": "functional"}, "[5]": {"target": "Calcium/calmodulin-dependent protein kinase type II subunit delta (Homo sapiens, UniProt Q13557)", "type": "functional"}, "[6]": {"target": "Tyrosine-protein kinase ITK/TSK (Homo sapiens, UniProt Q08881)", "type": "functional"}, "[7]": {"target": "LIM domain kinase 1 (Homo sapiens, UniProt P53667)", "assay": "Navigating the Kinome. Panel member name: LIMK1", "type": "functional"}, "[8]": {"target": "Proto-oncogene tyrosine-protein kinase Src (Homo sapiens, UniProt P12931)", "type": "functional"}, "[9]": {"target": "Glycogen synthase kinase-3 alpha (Homo sapiens, UniProt P49840)", "sequence (P49840 whole entry)": "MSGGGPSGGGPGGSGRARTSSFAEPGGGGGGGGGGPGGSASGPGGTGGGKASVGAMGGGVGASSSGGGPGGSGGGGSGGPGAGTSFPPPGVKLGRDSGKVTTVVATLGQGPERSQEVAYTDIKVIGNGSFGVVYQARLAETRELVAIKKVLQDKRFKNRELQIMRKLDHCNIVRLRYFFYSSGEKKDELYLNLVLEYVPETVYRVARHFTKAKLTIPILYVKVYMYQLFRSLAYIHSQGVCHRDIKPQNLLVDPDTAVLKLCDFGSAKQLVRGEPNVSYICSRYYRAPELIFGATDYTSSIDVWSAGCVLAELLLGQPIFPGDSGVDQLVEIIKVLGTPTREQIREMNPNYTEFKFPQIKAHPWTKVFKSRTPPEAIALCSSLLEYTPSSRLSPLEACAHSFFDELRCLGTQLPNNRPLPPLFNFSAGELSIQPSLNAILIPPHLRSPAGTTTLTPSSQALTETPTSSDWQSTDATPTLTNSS", "type": "functional"}, "[10]": {"target": "Inhibitor of nuclear factor kappa-B kinase subunit alpha (Homo sapiens, UniProt O15111)", "sequence (O15111 whole entry)": "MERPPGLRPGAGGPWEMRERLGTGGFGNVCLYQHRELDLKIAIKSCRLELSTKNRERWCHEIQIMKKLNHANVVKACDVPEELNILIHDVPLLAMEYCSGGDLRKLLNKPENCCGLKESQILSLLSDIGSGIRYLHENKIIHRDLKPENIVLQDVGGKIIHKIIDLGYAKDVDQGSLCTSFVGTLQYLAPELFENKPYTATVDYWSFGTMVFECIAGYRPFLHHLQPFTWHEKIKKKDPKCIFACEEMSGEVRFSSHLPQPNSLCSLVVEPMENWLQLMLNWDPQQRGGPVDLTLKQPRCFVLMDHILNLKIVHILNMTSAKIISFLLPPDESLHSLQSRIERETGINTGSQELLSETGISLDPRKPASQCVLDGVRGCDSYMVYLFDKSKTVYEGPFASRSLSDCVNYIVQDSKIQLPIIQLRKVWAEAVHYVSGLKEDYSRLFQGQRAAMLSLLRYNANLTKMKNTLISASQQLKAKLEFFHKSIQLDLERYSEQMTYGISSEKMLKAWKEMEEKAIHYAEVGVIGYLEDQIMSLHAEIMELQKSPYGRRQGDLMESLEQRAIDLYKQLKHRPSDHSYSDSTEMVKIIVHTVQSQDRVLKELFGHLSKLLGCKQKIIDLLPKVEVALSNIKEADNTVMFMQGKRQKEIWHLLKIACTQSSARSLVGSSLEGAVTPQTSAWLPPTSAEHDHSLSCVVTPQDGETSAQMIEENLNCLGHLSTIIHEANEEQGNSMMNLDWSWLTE", "type": "functional"}, "[11]": {"target": "Casein kinase I isoform delta (Homo sapiens, UniProt P48730)", "type": "functional"}, "[12]": {"target": "3-phosphoinositide-dependent protein kinase 1 (Homo sapiens, UniProt O15530)", "sequence (O15530 whole entry)": "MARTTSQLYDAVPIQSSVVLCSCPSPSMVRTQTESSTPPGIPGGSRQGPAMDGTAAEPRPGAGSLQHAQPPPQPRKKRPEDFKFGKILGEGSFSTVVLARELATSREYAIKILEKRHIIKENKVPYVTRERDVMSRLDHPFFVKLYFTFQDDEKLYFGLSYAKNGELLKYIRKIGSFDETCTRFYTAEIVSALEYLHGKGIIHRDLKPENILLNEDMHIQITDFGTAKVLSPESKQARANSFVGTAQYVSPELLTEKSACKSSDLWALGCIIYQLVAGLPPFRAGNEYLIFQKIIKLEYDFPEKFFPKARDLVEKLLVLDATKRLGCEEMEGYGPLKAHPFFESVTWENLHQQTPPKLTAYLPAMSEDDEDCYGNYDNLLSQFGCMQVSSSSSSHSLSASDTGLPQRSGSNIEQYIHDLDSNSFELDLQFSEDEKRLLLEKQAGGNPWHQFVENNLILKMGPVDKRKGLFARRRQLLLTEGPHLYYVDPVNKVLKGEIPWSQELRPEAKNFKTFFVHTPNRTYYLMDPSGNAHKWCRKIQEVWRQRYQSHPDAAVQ", "type": "functional"}, "[13]": {"target": "Fibroblast growth factor receptor 3 (Homo sapiens, UniProt P22607)", "sequence (P22607 whole entry)": "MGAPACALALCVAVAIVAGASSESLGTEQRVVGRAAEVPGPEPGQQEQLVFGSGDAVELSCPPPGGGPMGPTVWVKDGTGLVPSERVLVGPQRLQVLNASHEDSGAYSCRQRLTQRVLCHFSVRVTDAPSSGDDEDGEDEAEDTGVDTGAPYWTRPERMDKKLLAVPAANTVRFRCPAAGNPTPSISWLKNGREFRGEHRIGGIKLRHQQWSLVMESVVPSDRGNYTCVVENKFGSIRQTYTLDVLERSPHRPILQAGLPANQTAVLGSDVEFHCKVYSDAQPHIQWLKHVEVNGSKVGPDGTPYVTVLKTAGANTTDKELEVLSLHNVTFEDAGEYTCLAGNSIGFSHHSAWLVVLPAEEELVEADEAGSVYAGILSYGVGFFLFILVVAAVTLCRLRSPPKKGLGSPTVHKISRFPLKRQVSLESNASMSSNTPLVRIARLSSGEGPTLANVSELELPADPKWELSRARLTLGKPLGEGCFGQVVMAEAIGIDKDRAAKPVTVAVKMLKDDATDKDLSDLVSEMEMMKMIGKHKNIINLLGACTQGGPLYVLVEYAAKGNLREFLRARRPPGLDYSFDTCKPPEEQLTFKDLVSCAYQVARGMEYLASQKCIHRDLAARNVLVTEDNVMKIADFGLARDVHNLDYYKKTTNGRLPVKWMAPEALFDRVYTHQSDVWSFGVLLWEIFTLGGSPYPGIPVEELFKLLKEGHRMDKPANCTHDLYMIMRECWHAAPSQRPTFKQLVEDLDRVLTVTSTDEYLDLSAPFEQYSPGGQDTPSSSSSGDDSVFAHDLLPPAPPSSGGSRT", "type": "functional"}, "[14]": {"target": "Dual specificity protein phosphatase 3 (Homo sapiens, UniProt P51452)", "sequence (P51452 whole entry)": "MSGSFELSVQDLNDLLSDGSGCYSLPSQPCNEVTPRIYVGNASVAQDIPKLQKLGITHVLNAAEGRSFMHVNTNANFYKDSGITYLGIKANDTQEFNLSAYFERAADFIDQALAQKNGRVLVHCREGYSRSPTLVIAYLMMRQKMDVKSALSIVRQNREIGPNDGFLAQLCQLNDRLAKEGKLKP", "assay": "VHR1 phosphatase inhibitors, primary screen, biochemical, absorbance, uHTS (AID 1654)"}, "[15]": {"target": "Dual specificity protein phosphatase 6 (Rattus norvegicus, UniProt Q64346)", "assay": "MKP-3 phosphatase inhibitors, primary screen, biochemical, rat enzyme, in vitro (AID 425)"}, "[16]": {"target": "T1, Tyrosine-protein phosphatase non-receptor type 22 (Homo sapiens, UniProt Q9Y2R2)", "T1 sequence (Q9Y2R2 whole entry)": "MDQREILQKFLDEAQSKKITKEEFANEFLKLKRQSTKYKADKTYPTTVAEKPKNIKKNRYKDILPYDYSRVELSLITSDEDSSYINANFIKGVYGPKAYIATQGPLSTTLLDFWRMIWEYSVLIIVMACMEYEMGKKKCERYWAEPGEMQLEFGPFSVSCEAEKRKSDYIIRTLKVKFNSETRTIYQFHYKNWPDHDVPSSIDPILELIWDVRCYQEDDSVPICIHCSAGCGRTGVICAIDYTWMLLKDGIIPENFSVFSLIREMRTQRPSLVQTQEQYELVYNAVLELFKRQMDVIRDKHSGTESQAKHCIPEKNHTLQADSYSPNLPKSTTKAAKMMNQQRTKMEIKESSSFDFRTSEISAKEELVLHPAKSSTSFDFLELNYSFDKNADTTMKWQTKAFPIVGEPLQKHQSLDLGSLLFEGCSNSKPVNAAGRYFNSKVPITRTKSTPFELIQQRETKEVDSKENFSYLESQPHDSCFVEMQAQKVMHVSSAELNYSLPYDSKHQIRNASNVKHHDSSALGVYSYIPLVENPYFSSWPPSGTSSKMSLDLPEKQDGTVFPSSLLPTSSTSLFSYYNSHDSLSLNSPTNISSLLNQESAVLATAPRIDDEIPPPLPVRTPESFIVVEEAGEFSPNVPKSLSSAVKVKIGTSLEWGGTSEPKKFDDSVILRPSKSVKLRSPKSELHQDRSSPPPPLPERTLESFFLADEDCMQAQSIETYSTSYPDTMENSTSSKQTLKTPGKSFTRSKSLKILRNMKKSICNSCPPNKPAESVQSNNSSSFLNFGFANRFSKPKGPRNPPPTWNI", "type": "functional"}, "[17]": {"target": "T2, Caspase-6 (Homo sapiens, UniProt P55212)", "T2 sequence (P55212 whole entry)": "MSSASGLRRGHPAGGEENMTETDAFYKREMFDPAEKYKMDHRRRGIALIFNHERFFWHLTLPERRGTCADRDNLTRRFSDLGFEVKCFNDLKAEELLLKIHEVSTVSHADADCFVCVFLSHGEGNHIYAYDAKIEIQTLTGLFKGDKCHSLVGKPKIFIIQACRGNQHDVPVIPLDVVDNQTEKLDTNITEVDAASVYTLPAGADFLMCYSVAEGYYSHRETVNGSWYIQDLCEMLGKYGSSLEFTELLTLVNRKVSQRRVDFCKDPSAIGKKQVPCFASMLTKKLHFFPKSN", "assay": "human caspase-6 inhibitors, dose response, biochemical, VEID-R110 fluorescence, cherry-pick (AID 720632)"}, "[18]": {"target": "T3, Tyrosyl-DNA phosphodiesterase 2 (Homo sapiens, UniProt O95551)", "T3 sequence (O95551 whole entry)": "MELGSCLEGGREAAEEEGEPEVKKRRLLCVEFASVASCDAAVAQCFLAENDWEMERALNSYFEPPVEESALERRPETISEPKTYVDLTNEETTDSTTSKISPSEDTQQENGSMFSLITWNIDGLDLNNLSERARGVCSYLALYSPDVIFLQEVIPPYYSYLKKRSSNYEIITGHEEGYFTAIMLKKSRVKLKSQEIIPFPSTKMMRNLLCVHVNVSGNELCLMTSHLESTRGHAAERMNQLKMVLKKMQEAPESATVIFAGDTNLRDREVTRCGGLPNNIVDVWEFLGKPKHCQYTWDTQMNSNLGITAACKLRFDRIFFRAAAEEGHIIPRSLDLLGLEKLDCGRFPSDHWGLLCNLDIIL", "assay": "human TDP2 enzyme inhibitors, dose response, biochemical, epi absorbance, IC50 (AID 743297)"}, "[19]": {"assay": "MC4R antagonists, dose response, counter-screen for LGR2 antagonist project, cell-based, plate reader, cherry pick (AID 743444);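 note: transfected HEK 293 cells stimulated with alpha-MSH peptide; potency of inhibitors of the alpha-MSH evoked signal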", "type": "functional"}, "[20]": {"target": "RNA-editing ligase 1, mitochondrial (Trypanosoma brucei brucei, UniProt P86926)", "assay": "TbREL1 ligase inhibitors, dose response, biochemical, fluorescence, Trypanosoma brucei (AID 1117295)", "type": "functional"}, "[21]": {"target": "T4, Caspase-3 (Homo sapiens, UniProt P42574)", "T4 sequence (P42574 whole entry)": "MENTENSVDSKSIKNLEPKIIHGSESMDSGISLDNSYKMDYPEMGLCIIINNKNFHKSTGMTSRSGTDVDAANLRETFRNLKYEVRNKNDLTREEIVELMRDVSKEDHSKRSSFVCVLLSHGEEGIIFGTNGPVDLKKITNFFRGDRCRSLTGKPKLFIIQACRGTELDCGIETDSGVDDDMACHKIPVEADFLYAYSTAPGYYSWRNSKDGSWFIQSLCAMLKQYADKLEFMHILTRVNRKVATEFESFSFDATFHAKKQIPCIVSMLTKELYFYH", "type": "functional"}}, "note": "Activity calls are given as the source filed them."}
{"smiles": "COc1cc2ncn(-c3cc(OCc4ccccc4C(F)(F)F)c(C(N)=O)s3)c2cc1OC", "note": "[GW843682X]", "values": [{"measurement": "Ki", "setting": "[1]", "result": "200 nM (active)"}, {"measurement": "Ki", "setting": "[2]", "result": "> 5010 nM (inactive)"}, {"measurement": "Ki", "setting": "[3]", "result": "63.1 nM (active)"}, {"measurement": "Ki", "setting": "[4]", "result": "> 1260 nM (inactive)"}, {"measurement": "Ki", "setting": "[5]", "result": "> 6310 nM (inactive)"}, {"measurement": "Ki", "setting": "[6]", "result": "1000 nM (active)"}, {"measurement": "Ki", "setting": "[7]", "result": "7940 nM (active)"}, {"measurement": "Ki", "setting": "[8]", "result": "5010 nM (active)"}, {"measurement": "Ki", "setting": "[9]", "result": "> 7940 nM (inactive)"}, {"measurement": "Ki", "setting": "[10]", "result": "> 3980 nM (inactive)"}, {"measurement": "Ki", "setting": "[11]", "result": "> 7940 nM (inactive)"}, {"measurement": "Ki", "setting": "[12]", "result": "> 3980 nM (inactive)"}, {"measurement": "Ki", "setting": "[13]", "result": "> 2000 nM (inactive)"}]}
{"smiles": "CCCc1nc2c(=O)n(C)c(=O)nc-2n(C)n1", "values": [{"measurement": "IC50", "setting": "[14]", "result": "< 980 nM (inactive)"}, {"measurement": "IC50", "setting": "[15]", "result": "< 1230 nM (not active)"}, {"measurement": "IC50", "setting": "[16]", "result": "1600 nM (active)"}, {"measurement": "AC50", "setting": "[17]", "result": "63.6 nM (active)"}, {"measurement": "IC50", "setting": "[18]", "result": "161 nM (active)"}, {"measurement": "AC50", "setting": "[19]", "result": "4600 nM (active)"}, {"measurement": "IC50", "setting": "[20]", "result": "494 nM (active)"}]}
{"smiles": "CC(=O)c1ccc(NC2=C(N3CCOCC3)C(=O)c3ccccc3C2=O)cc1", "values": [{"measurement": "IC50", "setting": "[21]", "result": "30000 nM (active)"}, {"measurement": "IC50", "setting": "[18]", "result": "> 128000 nM (inactive)"}]}
